Source: PubChem BioAssay (NCI)
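Growth conditions: 96-well plates. Treatment: test compound, 48 hours, 5 concentrations. Analysis: linear interpolation between bracketing concentrations; unreached endpoints set to highest concentration. TGI is the concentration that stops growth completely.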

Tests used:
Test in all cases: NCI-60 cell line screen, 48 h
EKVX NSCLC = system: EKVX NSCLC
NCI-H522 lung = system: NCI-H522 lung
NCI-H226 lung = system: NCI-H226 lung
SNB-19 CNS = system: SNB-19 CNS
NCI/ADR-RES ovarian = system: NCI/ADR-RES ovarian
TK-10 renal = system: TK-10 renal
SF-539 CNS = system: SF-539 CNS
IGROV1 ovarian = system: IGROV1 ovarian
OVCAR-4 ovarian = system: OVCAR-4 ovarian
SK-MEL-28 melanoma = system: SK-MEL-28 melanoma
SN12C renal = system: SN12C renal
MDA-N = system: MDA-N
SNB-75 CNS = system: SNB-75 CNS
SF-295 CNS = system: SF-295 CNS
SF-268 CNS = system: SF-268 CNS
U251 CNS = system: U251 CNS
COLO 205 colon = system: COLO 205 colon
RPMI-8226 leukemia = system: RPMI-8226 leukemia
UACC-257 melanoma = system: UACC-257 melanoma
SR leukemia = system: SR leukemia
NCI-H460 lung = system: NCI-H460 lung
SK-MEL-2 melanoma = system: SK-MEL-2 melanoma
A498 renal = system: A498 renal
MOLT-4 leukemia = system: MOLT-4 leukemia
M14 melanoma = system: M14 melanoma
CAKI-1 renal = system: CAKI-1 renal
HT29 colon = system: HT29 colon
MALME-3M melanoma = system: MALME-3M melanoma
MDA-MB-231 breast = system: MDA-MB-231 breast
SK-OV-3 ovarian = system: SK-OV-3 ovarian
DU-145 prostate = system: DU-145 prostate
MDA-MB-435 = system: MDA-MB-435
HS 578T breast = system: HS 578T breast
ACHN renal = system: ACHN renal
HCT-15 colon = system: HCT-15 colon
A549 NSCLC = system: A549 NSCLC
OVCAR-8 ovarian = system: OVCAR-8 ovarian
PC-3 prostate = system: PC-3 prostate
UO-31 renal = system: UO-31 renal
OVCAR-3 ovarian = system: OVCAR-3 ovarian
HOP-62 NSCLC = system: HOP-62 NSCLC
HCT-116 colon = system: HCT-116 colon
OVCAR-5 ovarian = system: OVCAR-5 ovarian
SK-MEL-5 melanoma = system: SK-MEL-5 melanoma
786-0 renal = system: 786-0 renal
SW-620 colon = system: SW-620 colon
BT-549 breast = system: BT-549 breast
KM12 colon = system: KM12 colon
CCRF-CEM leukemia = system: CCRF-CEM leukemia
LOX IMVI melanoma = system: LOX IMVI melanoma
K-562 leukemia = system: K-562 leukemia
HCC-2998 colon = system: HCC-2998 colon
T-47D breast = system: T-47D breast
HL-60(TB) leukemia = system: HL-60(TB) leukemia
NCI-H23 lung = system: NCI-H23 lung
UACC-62 melanoma = system: UACC-62 melanoma
MCF7 breast = system: MCF7 breast
RXF 393 renal = system: RXF 393 renal
HOP-92 NSCLC = system: HOP-92 NSCLC

## COc1ccc2c(c1)C(=O)C1CCC(=O)N1C2c1ccc2c(c1)OCO2 (stereo not given)
EKVX NSCLC
  TGI: 40.2 µM
NCI-H522 lung
  TGI: 21.6 µM
NCI-H226 lung
  TGI: 30.3 µM
SNB-19 CNS
  TGI: 26.7 µM
NCI/ADR-RES ovarian
  TGI: > 100 µM
TK-10 renal
  TGI: 86.1 µM
SF-539 CNS
  TGI: 42.7 µM
IGROV1 ovarian
  TGI: 32.5 µM
OVCAR-4 ovarian
  TGI: 47.9 µM
SK-MEL-28 melanoma
  TGI: 24.4 µM
SN12C renal
  TGI: 24.4 µM
MDA-N
  TGI: > 100 µM
SNB-75 CNS
  TGI: 36.5 µM
SF-295 CNS
  TGI: 36.3 µM
SF-268 CNS
  TGI: 53.3 µM
U251 CNS
  TGI: 31.5 µM
COLO 205 colon
  TGI: 25.7 µM
RPMI-8226 leukemia
  TGI: 12.9 µM
UACC-257 melanoma
  TGI: 40.4 µM
SR leukemia
  TGI: > 100 µM
NCI-H460 lung
  TGI: 64.4 µM
SK-MEL-2 melanoma
  TGI: 41.6 µM
A498 renal
  TGI: 38.1 µM
MOLT-4 leukemia
  TGI: 11.2 µM
M14 melanoma
  TGI: 29 µM
CAKI-1 renal
  TGI: 71.8 µM
HT29 colon
  TGI: 16.9 µM
MALME-3M melanoma
  TGI: 15.9 µM
MDA-MB-231 breast
  TGI: 54.6 µM
SK-OV-3 ovarian
  TGI: 63.1 µM
DU-145 prostate
  TGI: 33.4 µM
MDA-MB-435
  TGI: 24.4 µM
HS 578T breast
  TGI: 88.1 µM
ACHN renal
  TGI: 38.3 µM
HCT-15 colon
  TGI: 29.6 µM
A549 NSCLC
  TGI: 51.5 µM
OVCAR-8 ovarian
  TGI: 44.2 µM
PC-3 prostate
  TGI: 29.5 µM
UO-31 renal
  TGI: 22.4 µM
OVCAR-3 ovarian
  TGI: 15.3 µM
HOP-62 NSCLC
  TGI: 42.8 µM
HCT-116 colon
  TGI: 14.9 µM
OVCAR-5 ovarian
  TGI: 28.1 µM
SK-MEL-5 melanoma
  TGI: 24.9 µM
786-0 renal
  TGI: 78.2 µM
SW-620 colon
  TGI: 23.7 µM
BT-549 breast
  TGI: 11.6 µM
KM12 colon
  TGI: 22.2 µM
CCRF-CEM leukemia
  TGI: 13.3 µM
LOX IMVI melanoma
  TGI: 35.1 µM
K-562 leukemia
  TGI: 39.8 µM
HCC-2998 colon
  TGI: 28 µM
T-47D breast
  TGI: 48.5 µM
HL-60(TB) leukemia
  TGI: 42.4 µM
NCI-H23 lung
  TGI: 39.8 µM
UACC-62 melanoma
  TGI: 29.9 µM

## COc1cccc(C23CCCC(C2)N(C)CC3OC(=O)c2ccccc2)c1OC (stereo not given)
EKVX NSCLC
  TGI: 72.7 µM
NCI-H522 lung
  TGI: 67.6 µM
SNB-19 CNS
  TGI: > 100 µM
NCI/ADR-RES ovarian
  TGI: 67.1 µM
SF-539 CNS
  TGI: > 100 µM
IGROV1 ovarian
  TGI: 37.4 µM
OVCAR-4 ovarian
  TGI: > 100 µM
SK-MEL-28 melanoma
  TGI: 87.8 µM
MDA-N
  TGI: 37.7 µM
SF-295 CNS
  TGI: 77.7 µM
SF-268 CNS
  TGI: > 100 µM
U251 CNS
  TGI: > 100 µM
COLO 205 colon
  TGI: 29 µM
RPMI-8226 leukemia
  TGI: 55.3 µM
UACC-257 melanoma
  TGI: > 100 µM
SR leukemia
  TGI: 40.9 µM
NCI-H460 lung
  TGI: > 100 µM
SK-MEL-2 melanoma
  TGI: > 100 µM
A498 renal
  TGI: > 100 µM
MOLT-4 leukemia
  TGI: 60.3 µM
M14 melanoma
  TGI: 29.6 µM
CAKI-1 renal
  TGI: > 100 µM
HT29 colon
  TGI: 43.3 µM
MALME-3M melanoma
  TGI: 48.1 µM
SK-OV-3 ovarian
  TGI: 97.7 µM
DU-145 prostate
  TGI: > 100 µM
MDA-MB-435
  TGI: 38.4 µM
HS 578T breast
  TGI: 78.6 µM
ACHN renal
  TGI: > 100 µM
HCT-15 colon
  TGI: 72.7 µM
A549 NSCLC
  TGI: > 100 µM
OVCAR-8 ovarian
  TGI: 38.7 µM
PC-3 prostate
  TGI: 81.8 µM
UO-31 renal
  TGI: > 100 µM
OVCAR-3 ovarian
  TGI: > 100 µM
HOP-62 NSCLC
  TGI: > 100 µM
HCT-116 colon
  TGI: > 100 µM
OVCAR-5 ovarian
  TGI: > 100 µM
SK-MEL-5 melanoma
  TGI: 27.4 µM
786-0 renal
  TGI: > 100 µM
SW-620 colon
  TGI: > 100 µM
BT-549 breast
  TGI: 44.9 µM
KM12 colon
  TGI: 61.3 µM
CCRF-CEM leukemia
  TGI: 25 µM
LOX IMVI melanoma
  TGI: 45.2 µM
MCF7 breast
  TGI: > 100 µM
K-562 leukemia
  TGI: > 100 µM
HCC-2998 colon
  TGI: 78.1 µM
T-47D breast
  TGI: 81.2 µM
HL-60(TB) leukemia
  TGI: 28.3 µM
NCI-H23 lung
  TGI: 44.6 µM
UACC-62 melanoma
  TGI: 84.5 µM

## O=C(NCCCCCCO)c1cccc2cc3ccccc3nc12
EKVX NSCLC
  TGI: 32.8 µM
NCI-H522 lung
  TGI: 28.8 µM
NCI-H226 lung
  TGI: 35.3 µM
SNB-19 CNS
  TGI: 32.1 µM
NCI/ADR-RES ovarian
  TGI: > 100 µM
TK-10 renal
  TGI: 34.6 µM
SF-539 CNS
  TGI: 33.7 µM
IGROV1 ovarian
  TGI: 35.7 µM
OVCAR-4 ovarian
  TGI: 66.2 µM
SK-MEL-28 melanoma
  TGI: 42.5 µM
SN12C renal
  TGI: 49.5 µM
MDA-N
  TGI: 12.9 µM
SNB-75 CNS
  TGI: 37.3 µM
SF-295 CNS
  TGI: 32.8 µM
U251 CNS
  TGI: > 100 µM
COLO 205 colon
  TGI: 25.3 µM
RPMI-8226 leukemia
  TGI: 47.3 µM
UACC-257 melanoma
  TGI: 33.9 µM
NCI-H460 lung
  TGI: 39 µM
SK-MEL-2 melanoma
  TGI: 30.1 µM
MOLT-4 leukemia
  TGI: 58.5 µM
RXF 393 renal
  TGI: 37.7 µM
CAKI-1 renal
  TGI: 36.1 µM
HT29 colon
  TGI: 36.6 µM
MDA-MB-231 breast
  TGI: 40 µM
SK-OV-3 ovarian
  TGI: 47.4 µM
DU-145 prostate
  TGI: 32 µM
MDA-MB-435
  TGI: 47.3 µM
HS 578T breast
  TGI: 71.9 µM
ACHN renal
  TGI: 39.2 µM
HCT-15 colon
  TGI: 48.6 µM
A549 NSCLC
  TGI: 31.5 µM
OVCAR-8 ovarian
  TGI: > 100 µM
PC-3 prostate
  TGI: 31.9 µM
OVCAR-3 ovarian
  TGI: 36.5 µM
HOP-62 NSCLC
  TGI: 32.9 µM
HCT-116 colon
  TGI: 33.1 µM
OVCAR-5 ovarian
  TGI: 38.9 µM
SK-MEL-5 melanoma
  TGI: 32.9 µM
HOP-92 NSCLC
  TGI: > 100 µM
786-0 renal
  TGI: 36.2 µM
SW-620 colon
  TGI: > 100 µM
BT-549 breast
  TGI: 33.2 µM
KM12 colon
  TGI: 33.9 µM
CCRF-CEM leukemia
  TGI: > 100 µM
LOX IMVI melanoma
  TGI: 34.7 µM
MCF7 breast
  TGI: 39.3 µM
K-562 leukemia
  TGI: > 100 µM
T-47D breast
  TGI: 26 µM
HL-60(TB) leukemia
  TGI: 74.8 µM
UACC-62 melanoma
  TGI: 35.2 µM

## COC(=O)/C=c1/c2ccccc2n2c1c1ccccc1[n+]2C
EKVX NSCLC
  TGI: 7.79 µM
NCI-H226 lung
  TGI: 21 µM
SNB-19 CNS
  TGI: > 100 µM
NCI/ADR-RES ovarian
  TGI: > 100 µM
TK-10 renal
  TGI: 9.93 µM
SF-539 CNS
  TGI: 14 µM
IGROV1 ovarian
  TGI: 20.9 µM
OVCAR-4 ovarian
  TGI: 15.9 µM
SK-MEL-28 melanoma
  TGI: 19.9 µM
SN12C renal
  TGI: 16.4 µM
MDA-N
  TGI: 11.1 µM
SNB-75 CNS
  TGI: 8.44 µM
SF-295 CNS
  TGI: 5.63 µM
SF-268 CNS
  TGI: 22.8 µM
U251 CNS
  TGI: 19.4 µM
COLO 205 colon
  TGI: 2.51 µM
RPMI-8226 leukemia
  TGI: 9.67 µM
UACC-257 melanoma
  TGI: 8.08 µM
NCI-H460 lung
  TGI: 12.5 µM
SK-MEL-2 melanoma
  TGI: 11.6 µM
A498 renal
  TGI: 14.6 µM
MOLT-4 leukemia
  TGI: > 100 µM
M14 melanoma
  TGI: 15.5 µM
RXF 393 renal
  TGI: 17.4 µM
CAKI-1 renal
  TGI: 70.9 µM
HT29 colon
  TGI: 12.8 µM
MALME-3M melanoma
  TGI: 6.74 µM
MDA-MB-231 breast
  TGI: 26 µM
SK-OV-3 ovarian
  TGI: 6.93 µM
DU-145 prostate
  TGI: 36.3 µM
MDA-MB-435
  TGI: 18.8 µM
HS 578T breast
  TGI: > 100 µM
ACHN renal
  TGI: 14.7 µM
HCT-15 colon
  TGI: 33.1 µM
A549 NSCLC
  TGI: 24.1 µM
OVCAR-8 ovarian
  TGI: 15.7 µM
PC-3 prostate
  TGI: 9.79 µM
UO-31 renal
  TGI: 20.4 µM
OVCAR-3 ovarian
  TGI: 21.9 µM
HOP-62 NSCLC
  TGI: 15.3 µM
HCT-116 colon
  TGI: 10.1 µM
OVCAR-5 ovarian
  TGI: 17.6 µM
SK-MEL-5 melanoma
  TGI: 8.12 µM
786-0 renal
  TGI: 14.9 µM
SW-620 colon
  TGI: 12.3 µM
BT-549 breast
  TGI: 14.7 µM
KM12 colon
  TGI: 9.47 µM
CCRF-CEM leukemia
  TGI: 51.1 µM
LOX IMVI melanoma
  TGI: 27.9 µM
MCF7 breast
  TGI: 26.5 µM
K-562 leukemia
  TGI: > 100 µM
HCC-2998 colon
  TGI: 5.75 µM
T-47D breast
  TGI: > 100 µM
HL-60(TB) leukemia
  TGI: 8.44 µM
NCI-H23 lung
  TGI: 11.4 µM
UACC-62 melanoma
  TGI: 27.5 µM
